{"source": "patent US20220040160A1", "about": "“COMBINATION OF HISTONE DEACETYLASE INHIBITOR AND IMMUNOTHERAPY” (The United States of America,as represented by the …, priority 2016, published 2022)", "key": {"[1]": {"system": "ER stress response element (ERSE)", "assay": "Luciferase ER stress reporter assay in LNCaP clones", "type": "cell-based, human", "conditions": "designated concentrations", "procedure": "(§1) Vorinostat and entinostat were obtained from Selleck Chemicals. Adherent tumor cells in log-growth phase were exposed daily to vehicle (DMSO) or vorinostat at the indicated concentrations for 5 h, over 4 consecutive days. At the end of each treatment, cells were washed in fresh medium and returned to incubation at 37° C. with 5% CO2. Alternatively, cells were continuously exposed to vehicle (DMSO) or entinostat at the indicated concentrations for 72 h."}, "[2]": {"system": "prostate and breast carcinoma cells", "assay": "NK cell mediated lysis of carcinoma cells", "type": "cell-based, human", "conditions": "after clinically relevant exposure", "procedure": "Human prostate (LNCaP), breast (MDA-MB-231), and lung (H460) carcinoma cells were exposed to vorinostat or vehicle (DMSO) and the percent lysis was determined. At the end of treatment, the cells were used as targets in a lysis assay wherein NK cells isolated from human PBMCs were used as effectors (varying E:T ratios as indicated in FIG. 7)."}, "[3]": {"system": "non-small cell lung cancer (NSCLC)", "conditions": "entinostat given with the DNMT inhibitor azacitidine; subsequent therapies given immediately after epigenetic therapy; cited from earlier work"}, "[4]": {"system": "LNCaP prostate carcinoma cells", "assay": "Antigen-specific CTL lysis, overnight 111In-release assay", "type": "cell-based, human", "conditions": "E:T=30:1", "procedure": "as §1\n(§2) Carcinoembryonic antigen (CEA)-specific CTLs recognize the CEA peptide epitope […] (CAP-1) (SEQ ID NO: 1) (Tsang et al., J. Natl. Cancer Inst., 87(13): 982-990 (1995)). Prostate-specific antigen (PSA)-specific CTLs recognize the PSA peptide epitope […] (SEQ ID NO: 2) (Correale et al., J. Natl. Cancer Inst., 89(4): 293-300 (1997)). The mucin-1 (MUC-1)-specific CD8^+ CTL line, designated MUC-1 CTL, recognizes the MUC-1 peptide epitope […] (SEQ ID NO: 3) (Tsang et al., Clin. Cancer Res., 10(6): 2139-2149 (2004)). Brachyury-specific CTLs recognize the brachyury peptide epitope […] (T-p2) (SEQ ID NO: 4) (Tucker et al., Cancer Immunol. Immunother., 63(12): 1307-1317 (2014)). All T-cell lines were HLA-A2-restricted.\nCarcinoma cells exposed to vorinostat, entinostat, or vehicle (DMSO) were labeled with ^111In prior to being used as targets for direct lysis by effector CTLs at an effector-to-target ratio of 30:1 in a standard overnight cytotoxicity ^111In-release assay (Gameiro et al., Oncoimmunology, 3: e28643 (2014)).\nThe effect of clinically relevant vorinostat exposure on prostate and breast carcinoma cells' sensitivity to antigen-specific CTL-mediated lysis was examined. LNCaP and MDA-MB-231 were exposed to vorinostat or to vehicle as before, prior to being used as targets for antigen-specific CTL lysis, using CEA-, brachyury-, MUC-1-, or PSA-specific CD8^+ T cells as effector cells."}, "[5]": {"system": "LNCaP prostate carcinoma cells", "assay": "Cell growth and viability, trypan blue count / Live-Dead flow cytometry", "type": "cell-based", "conditions": "1 or 3 μM, 5 h daily over 4 days", "procedure": "as §1\n(§3) Tumor cells were exposed to DMSO or vorinostat as described above. Cells were harvested daily and viable cells were counted by trypan blue exclusion using a Cellometer Auto T4 automated cell counter (Nexcelom Bioscience). Cellular viability was confirmed by flow cytometry using Live/Dead exclusion, according to manufacturer's instructions (Invitrogen).\n(§4) Therefore, the in vitro effect of clinically relevant exposure of human prostate (LNCaP) and breast (MDA-MB-231) carcinoma cells to vorinostat on the activity of HDAC enzymes (isoforms 1-11), cellular proliferation, and viability was examined. Tumor cells were exposed daily for 5 h to 1 μM or 3 μM vorinostat, or vehicle (DMSO) over 4 consecutive days, mimicking the range of vorinostat exposure (Cmax, AUC) attained in cancer patients after oral once daily intake of 400 mg (Iwamoto et al., Cancer Chemother. Pharmacol., 72(3): 493-508 (2013)). […] Vorinostat concentration of 3 μM was used for all subsequent experiments."}, "[6]": {"system": "MDA-MB-231 breast carcinoma cells", "assay": "Cell growth and viability, trypan blue count / Live-Dead flow cytometry", "type": "cell-based", "conditions": "1 or 3 μM, 5 h daily over 4 days", "procedure": "as §1, §3, §4"}, "[7]": {"system": "HLA-A2 negative AsPC-1 pancreatic carcinoma cells", "assay": "Antigen-specific CTL lysis, HLA-restriction control", "type": "cell-based, human", "conditions": "cells exposed to vehicle or vorinostat 3 μM", "procedure": "as §1\nas §2, with “HLA-A2-restricted. […]” for “HLA-A2-restricted.”"}, "[8]": {"system": "antigen processing machinery (APM) components", "assay": "Flow cytometry of APM components and surface markers in MDA-MB-231 cells", "type": "cell-based, human", "procedure": "(§5) Vorinostat and entinostat were obtained from Selleck Chemicals.\nCell-surface and intracytoplasmic staining was performed as previously described (Ogino et al., J. Immunol. Methods, 278(1-2): 33-44 (2003)). Surface staining of tumor cells was performed using the primary labeled monoclonal antibodies HLA-A2-FITC, ICAM-1 (CD54)-PE, CEA (CD66)-FITC, MUC-1 (CD227)-FITC, and the appropriate isotype-matched controls (BD Biosciences). For intracellular analysis of antigen processing machinery (APM) components, mouse IgG1 (MK2-23) isotype control, LMP2 (SY-1)-, LMP7 (HB2)-, TAP-1 (NOB1)-, calnexin (TO-5)-, β2-microglobulin (L368), and tapasin (TO-3)-specific monoclonal antibodies were developed and characterized as described (Bandoh et al., Tissue Antigens, 66(3): 185-194 (2005); Ogino et al., Tissue Antigens, 62(5): 385-393 (2003); and Wang et al., J. Immunol. Methods, 299(1-2): 139-151 (2005)). Cellular fluorescence of 3×10^4 cells was examined on a FACSCalibur flow cytometer using CellQuest software (BD Biosciences).\nCTL killing of tumor targets requires T-cell recognition of specific major histocompatibility complex (MHC) Class I/CD8^+ restricted epitope complexes on the surface of tumor cells, an event determined by the cooperative interactions of multiple APM components. […] To test this hypothesis, MDA-MB-231 carcinoma cells were exposed to vorinostat or to vehicle as before. At the end of treatment, cells were examined by flow cytometry for intracellular expression of 6 APM components (FIG. 3)."}, "[9]": {"system": "H460 lung carcinoma cells", "assay": "Avelumab (anti-PD-L1) mediated ADCC with NK effectors", "type": "cell-based, human", "conditions": "3 μM, 5 h daily, 4 days, anti-PD-L1 vs isotype control", "procedure": "Lung (H460) and pancreatic (AsPC-1) carcinoma cells were exposed daily for 5 h to vorinostat (3 uM, black circles and bars) or DMSO (open circles and bars) for 4 consecutive days prior to being used as targets PDL-1-mediated ADCC. Upper panel: cell-surface expression of PDL1 in carcinoma targets. Middle panel: NK lysis in the presence of anti-PDL1 or isotype control Ab. Lower panel: H460 lysis in the presence of anti-PDL1 or isotype control antibodies using NK effector cells pre-incubated with anti-CD16 mAb. Results are presented as mean±S.E.M. from 3 replicate wells and are representative of 2-4 independent experiments. Asterisks denote statistical significance relative to controls (2-way ANOVA).\nHuman lung (H460) carcinoma cells were exposed to vorinostat and isotype control, anti-CD16, or anti-PD-L1 (avelumab)."}, "[10]": {"system": "HDAC enzymes (isoforms 1-11)", "assay": "HDAC activity assay (EpiQuik colorimetric kit) on nuclear extracts of treated carcinoma cells", "type": "cell-based, human", "conditions": "1 or 3 μM, 5 h daily over 4 days, at 96 h, vs DMSO", "procedure": "as §5\nChanges in the nuclear enzyme activity of HDAC isoforms 1-11 following vorinostat treatment of MDA-MB-231 and LNCaP cells were determined using the colorimetric EpiQuik HDAC Activity/Inhibition Assay Kit (Epigentek). Briefly, 10 μg of extracted nuclear HDAC proteins were incubated with acetylated HDAC substrate for 90 min at 37° C. HDAC deacetylated products were detected following sequential incubation with capture and detection antibodies, according to the manufacturer's specifications.\nas §4"}, "[11]": {"system": "MDA-MB-231 breast carcinoma cells", "conditions": "brachyury-specific CTL, 3 μM", "procedure": "as §1\nas §2, with “(T-p2) (SEQ ID NO: 4) (Tucker et al., Cancer Immunol. Immunother., 63(12): 1307-1317 (2014)). All T-cell lines were HLA-A2-restricted.” left out\nSilencer® siRNA and negative control siRNA were used to silence HDAC1, ERN1, and PERK in MDA-MB-231 carcinoma cells, according to the manufacturer's instructions (Life Technologies). […] Detection and quantification of band intensity were performed with the Odyssey Infrared Imaging System (LI-COR Biotechnology). […]"}, "[12]": {"conditions": "MDA-MB-231, 3 μM, 96 h, intracellular flow cytometry"}}}
{"smiles": "Nc1ccccc1NC(=O)c1ccc(CNC(=O)OCc2cccnc2)cc1", "note": "[entinostat]", "values": [{"measurement": "activation of ERSE (firefly/renilla luciferase ratio normalized to DMSO)", "setting": "[1]; entinostat continuous exposure 72 h", "value": "activated ERSE in an exposure-dependent manner"}, {"measurement": "sensitivity to NK cell mediated lysis in vitro", "setting": "[2]", "value": "more sensitive"}, {"measurement": "patients with major objective responses to subsequent anticancer therapies", "setting": "[3]", "value": "4 out of 19"}, {"measurement": "sensitivity to CTL-mediated killing (PSA-specific CTL)", "setting": "[4]; entinostat 500 nM, similar to vorinostat 3 μM, P<0.05", "value": "increased sensitivity"}]}
{"smiles": "O=C(CCCCCCC(=O)Nc1ccccc1)NO", "note": "[vorinostat]", "values": [{"measurement": "cellular viability", "setting": "[5]; at 96 h", "value": "no significant effect"}, {"measurement": "cellular proliferation", "setting": "[5]; vs vehicle, P<0.0001", "value": "significantly decreased"}, {"measurement": "cellular viability", "setting": "[6]; at 96 h", "value": "no significant effect"}, {"measurement": "cellular proliferation", "setting": "[6]; vs vehicle, P<0.0001", "value": "significantly decreased"}, {"measurement": "CTL lysis of HLA-A2 negative targets", "setting": "[7]", "value": "absence of significant lysis"}, {"measurement": "activation of ERSE (firefly/renilla luciferase ratio normalized to DMSO)", "setting": "[1]; vorinostat 5 h daily for 4 days", "value": "activated ERSE in a dose-dependent manner"}, {"measurement": "increase in Tapasin expression", "setting": "[8]; [12]", "value": 22, "unit": "%"}, {"measurement": "increase in expression of LMP2", "setting": "[8]; [12]", "value": "≥ 25", "unit": "%"}, {"measurement": "increase in expression of LMP7", "setting": "[8]; [12]", "value": "≥ 25", "unit": "%"}, {"measurement": "increase in expression of TAP1", "setting": "[8]; [12]", "value": "≥ 25", "unit": "%"}, {"measurement": "increase in expression of calnexin", "setting": "[8]; [12]", "value": "≥ 25", "unit": "%"}, {"measurement": "increase in expression of β2-microglobulin", "setting": "[8]; [12]", "value": "≥ 25", "unit": "%"}, {"measurement": "expression of CEA on the surface of tumor cells", "setting": "[8]; upon exposure to vorinostat", "value": "Increased expression"}, {"measurement": "expression of HLA class I antigens on the surface of tumor cells", "setting": "[8]; upon exposure to vorinostat", "value": "Increased expression"}, {"measurement": "expression of ICAM-1 on the surface of tumor cells", "setting": "[8]; upon exposure to vorinostat", "value": "Increased expression"}, {"measurement": "expression of MUC-1 on the surface of tumor cells", "setting": "[8]; upon exposure to vorinostat", "value": "Increased expression"}, {"measurement": "avelumab-mediated ADCC", "setting": "[9]", "value": "increases"}, {"measurement": "sensitivity to NK cell mediated lysis in vitro", "setting": "[2]", "value": "more sensitive"}, {"measurement": "HDAC activity", "setting": "[10]; LNCaP prostate carcinoma cells, P=0.0006", "value": "significantly decreased"}, {"measurement": "HDAC activity", "setting": "[10]; MDA-MB-231 breast carcinoma cells, P=0.0046", "value": "significantly decreased"}, {"measurement": "sensitivity to CTL-mediated lysis targeting MUC-1", "setting": "[4]; 3 μM, 5 h daily, 4 days, P<0.0001", "value": "significantly more sensitive"}, {"measurement": "sensitivity to CTL-mediated lysis targeting brachyury", "setting": "[4]; 3 μM, 5 h daily, 4 days, P=0.0004", "value": "significantly more sensitive"}, {"measurement": "sensitivity to CTL-mediated lysis targeting PSA", "setting": "[4]; 3 μM, 5 h daily, 4 days, P=0.0011", "value": "significantly more sensitive"}, {"measurement": "sensitivity to CTL-mediated lysis targeting CEA", "setting": "[4]; 3 μM, 5 h daily, 4 days, P=0.002", "value": "significantly more sensitive"}, {"measurement": "CTL lysis relative to vehicle control", "setting": "[11]; HDAC1-silenced cells", "value": "did not further increase"}, {"measurement": "increase in CTL sensitivity relative to vehicle controls", "setting": "[11]; control siRNA, E:T 30:1, P=0.0024", "value": 2, "unit": "fold"}]}
